Measurements published in publication PMC3805035 (Proteins, 2010).

What was measured:
[1] = target: T1, abietadiene synthase (AgABS) (Abies grandis, UniProt Q38710); assay type: biochemical
T1 sequence (Q38710 71-868): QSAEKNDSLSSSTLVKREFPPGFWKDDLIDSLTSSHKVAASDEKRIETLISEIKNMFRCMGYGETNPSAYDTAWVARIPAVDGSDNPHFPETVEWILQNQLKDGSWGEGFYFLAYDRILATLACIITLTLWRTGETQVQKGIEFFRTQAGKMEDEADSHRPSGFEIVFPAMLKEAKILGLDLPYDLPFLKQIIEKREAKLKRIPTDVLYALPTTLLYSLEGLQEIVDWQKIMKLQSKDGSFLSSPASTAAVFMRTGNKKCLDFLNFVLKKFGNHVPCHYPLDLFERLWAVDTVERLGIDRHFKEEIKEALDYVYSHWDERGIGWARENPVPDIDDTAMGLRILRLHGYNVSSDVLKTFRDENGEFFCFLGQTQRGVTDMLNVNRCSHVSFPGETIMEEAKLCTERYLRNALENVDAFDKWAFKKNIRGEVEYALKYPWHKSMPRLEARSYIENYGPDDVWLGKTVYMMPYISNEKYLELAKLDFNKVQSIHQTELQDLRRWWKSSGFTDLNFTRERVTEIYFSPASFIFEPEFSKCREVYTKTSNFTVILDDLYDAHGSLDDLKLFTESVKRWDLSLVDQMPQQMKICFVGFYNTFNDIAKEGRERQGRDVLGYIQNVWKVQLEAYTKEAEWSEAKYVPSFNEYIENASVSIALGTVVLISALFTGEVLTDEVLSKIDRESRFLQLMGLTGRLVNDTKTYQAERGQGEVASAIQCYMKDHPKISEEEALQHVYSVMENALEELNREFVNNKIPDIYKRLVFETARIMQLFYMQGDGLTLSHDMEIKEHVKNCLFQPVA

[2] = target: T2, M. tuberculosis Rv3377c (halimadienyl diphosphate synthase) (Mycobacterium tuberculosis, UniProt O50406); assay type: biochemical
T2 sequence (O50406 1-501): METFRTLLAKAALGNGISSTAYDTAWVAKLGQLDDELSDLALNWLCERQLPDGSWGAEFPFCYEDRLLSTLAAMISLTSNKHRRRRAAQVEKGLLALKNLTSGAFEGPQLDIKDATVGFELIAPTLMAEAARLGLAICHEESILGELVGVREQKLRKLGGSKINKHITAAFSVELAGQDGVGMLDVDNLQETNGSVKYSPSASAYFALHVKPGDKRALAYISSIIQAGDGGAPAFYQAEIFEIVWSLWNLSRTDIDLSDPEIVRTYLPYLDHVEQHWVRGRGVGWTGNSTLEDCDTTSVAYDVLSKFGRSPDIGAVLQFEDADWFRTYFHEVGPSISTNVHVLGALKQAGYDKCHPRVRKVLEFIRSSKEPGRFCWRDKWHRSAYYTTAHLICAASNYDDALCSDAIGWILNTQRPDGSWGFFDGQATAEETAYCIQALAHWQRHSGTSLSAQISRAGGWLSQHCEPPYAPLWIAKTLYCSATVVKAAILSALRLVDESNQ

CC(C)=CCCC(C)=CCCC(C)=CCC(P(=O)(O)O)P(=O)(O)O [BPH-850, farnesylmethylene bisphosphonate]
comparison of IC50 using GGPP or CPP as substrate, ABS ([1]; GGPP versus CPP as substrate): about the same IC50

C/C(=C\CC/C(C)=C/COP(=O)(O)OP(=O)(O)O)CC/C=C(\C)CCCN(C)C [15-aza-GGPP]
IC50 ([2]; read-out: Rv3377c inhibition (quantity not given)): 0.005 µM

C=CCN(C)CCCCCCCCCCCCCCCC(=O)OC [BPH-922]
IC50 [1]: 0.25 µM

O=P(O)(O)C(O)(Cc1cnc2ccccn12)P(=O)(O)O [minodronate]
effect on ABS activity [1]: no effect
activity against the M. tuberculosis protein (Rv3377c) [2]: no activity

O=P(O)(O)C(O)(Cn1ccnc1)P(=O)(O)O [zoledronate]
effect on ABS activity [1]: no effect
activity against the M. tuberculosis protein (Rv3377c) [2]: no activity
